Data taken from PubChem BioAssay AID1963840 (Molecular Pharmacology Branch, DTP, NCI, 2024).

Tested on: 695427-040-R-J1-PDC complex spheroid viability
Assay: Anticancer human tumor 695427-040-R-J1-PDC patient-derived colon adenocarcinoma cell line growth inhibition [POLQ]
Details: for IC50: curve of first compound; for viability, T/C: stronger effect = lower value
Experimental: Multicellular complex tumor spheroid response to Polymerase (POL) inhibitors (novobiocin, ART-558, RP6685) in combination with a variety of drugs and investigational agents in selected tumor cell lines
The POL inhibitors (novobiocin, ART-558, and RP6685) were evaluated both individually and in combination with standard of care and investigational anticancer small molecules within a complex spheroid model of solid tumors. . Complex spheroids include a stromal component modeled by human endothelial cells (HUVEC) and fibroblasts modeled by human mesenchymal stem cells (MSCs). The concentration ranges selected for each drug and investigational agent were based upon clinically achievable concentrations if the clinical Cmax of the agent was known.
Compounds. The drugs and investigational agents: novobiocin (NSC847541), ART-558 (NSC835418), RP-6685 (NSC848927), peposertib (NSC802822), ceralasertib (NSC780249), elimusertib (NSC800525), camonsertib (NSC841442), AZD-1390 (NSC803789), olaparib (NSC753686), talazoparib (NSC767125), rucaparib (NSC756644), sotorasib (NSC818433), MRTX-1133 (NSC836407), SN-38 (NSC673596), topotecan (NSC609699), epotoside (NSC141540), doxorubicin (NSC123127), gemcitabine (NSC613327), 5-fluorouracil (NSC19893), paclitaxel (NSC125973), vemurafenib (NSC761431), MSA-2 (NSC828583), SN-011 (NSC837082), adavosertib (NSC754352), prexasertib (NSC758257), carboplatin (NSC241240) and oxaliplatin (NSC266046), were obtained from the National Cancer Institute (NCI) Developmental Therapeutics Program Chemical Repository (21). The FDA-approved anticancer drug set is available from the Developmental Therapeutics Program at https://dtp.cancer.gov/organization/dscb/obtaining/. […] The stock solutions were prepared in dimethyl sulfoxide (DMSO, Sigma-Aldrich, St. Louis, MO, cat. D2650), except for the platinum compounds which were prepared in saline (Quality Biological, Gaithersburg, MD, cat. 114-055-101), at 800-fold the tested concentration and stored at -70 degrees C prior to their use. All drugs and investigational agents were tested over a range starting from a high concentration at or near the clinical Cmax and decreasing in half-log increments. If the clinical Cmax for an agent had not been determined, the highest concentration tested was 10 microM, except for SN-38, which was tested at a high concentration of 1 microM.
Cell Culture. All cells were maintained in an incubator at 37 degrees C and 5% CO2 with 95% humidity. The PDC lines were cultured according to standard operating procedures established by the NCI PDMR (https://pdmr.cancer.gov). Table 3 of the manuscript, lists the cell lines along with the number of the three cell types plated to form the mct-spheroids and media for tumor cell growth. After thawing, all PDC lines, except 997537-175-T-J1-PDC and 415267-285-R-J2-PDC, were cultured in Matrigel-coated flasks prepared with a working solution of 1X Ham's F-12 nutrient mix, without supplementation (Thermo Fisher Scientific, cat. 11765054), 100 U/mL penicillin-streptomycin (Thermo Fisher Scientific, cat. 15140122), and 2.5% Matrigel (Corning Inc., Corning, NY, cat. 354248) for the first three passages. The two PDC lines 997537-175-T-J1-PDC and 415267-285-R-J2-PDC were cultured on uncoated flasks. The 857933-349-R-J2-PDC line was cultured in 6C/Colon 1B media containing advanced DMEM/F-12 (Thermo Fisher Scientific, cat. 12634028), 10 mM HEPES (Thermo Fisher Scientific, cat. 15630080), 1X GlutaMAX supplement (Thermo Fisher Scientific, cat. 35050061), 0.1 mg/mL primocin (InvivoGen, San Diego, CA, cat. ant-pm-2), 10% defined fetal bovine serum, heat inactivated (HyClone Laboratories Inc., Logan, UT, cat. SH30070.03HI), 50% L-WRN conditioned media (ATCC, cat. CRL-3276), 1.25 mM N-Acetyl-L-cysteine (Sigma-Aldrich, cat. A9165), 10 mM nicotinamide (Sigma-Aldrich, cat. N0636), 1X B-27 supplement (Thermo Fisher Scientific, cat. 17504044), 1X N-2 supplement (Thermo Fisher Scientific, cat. […]

[1] = second compound 0.0316 µM, first compound 0.0316 µM
[2] = second compound 0.0316 µM, first compound 0.1 µM
[3] = second compound 0.0316 µM, first compound 0.316 µM
[4] = second compound 0.0316 µM, first compound 1 µM
[5] = second compound 0.1 µM, first compound 0.0316 µM
[6] = second compound 0.1 µM, first compound 0.1 µM
[7] = second compound 0.1 µM, first compound 0.316 µM
[8] = second compound 0.1 µM, first compound 1 µM
[9] = second compound 0.316 µM, first compound 0.0316 µM
[10] = second compound 0.316 µM, first compound 0.1 µM
[11] = second compound 0.316 µM, first compound 0.316 µM
[12] = second compound 0.316 µM, first compound 1 µM
[13] = second compound 1 µM, first compound 0.0316 µM
[14] = second compound 1 µM, first compound 0.1 µM
[15] = second compound 1 µM, first compound 0.316 µM
[16] = second compound 1 µM, first compound 1 µM
[17] = second compound 3.16 µM, first compound 0.0316 µM
[18] = second compound 3.16 µM, first compound 0.1 µM
[19] = second compound 3.16 µM, first compound 0.316 µM
[20] = second compound 3.16 µM, first compound 1 µM
[21] = second compound 10 µM, first compound 0.0316 µM
[22] = second compound 10 µM, first compound 0.1 µM
[23] = second compound 10 µM, first compound 0.316 µM
[24] = second compound 10 µM, first compound 1 µM
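Further: spheroids exposed to compounds for seven days.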
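Wherever viability, T/C is given: 100% = DMSO vehicle control viability.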

## C#Cc1c(F)ccc2cc(O)cc(-c3ncc4c(N5CC6CCC(C5)N6)nc(OCC56CCCN5CC(F)C6)nc4c3F)c12 (centres undefined) + Cc1cccc(N(C)C(=O)C2C(O)CCN2c2nc(C)cc(C(F)(F)F)c2C#N)c1
Second compound 0.0316 µM
  IC50: > 10 µM
Second compound 0.1 µM
  IC50: > 10 µM
Second compound 0.316 µM
  IC50: > 10 µM
Second compound 1 µM
  IC50: > 10 µM
Second compound 3.16 µM
  IC50: > 10 µM
Second compound 10 µM
  IC50: > 10 µM
[1]
  viability, T/C: 106%
[2]
  viability, T/C: 99.3%
[3]
  viability, T/C: 98%
[4]
  viability, T/C: 104%
Second compound 0.0316 µM, first compound 3.16 µM
  viability, T/C: 88.3%
Second compound 0.0316 µM, first compound 10 µM
  viability, T/C: 86.9%
[5]
  viability, T/C: 102%
[6]
  viability, T/C: 100%
[7]
  viability, T/C: 90.8%
[8]
  viability, T/C: 96%
Second compound 0.1 µM, first compound 3.16 µM
  viability, T/C: 92.1%
Second compound 0.1 µM, first compound 10 µM
  viability, T/C: 78.8%
[9]
  viability, T/C: 98.3%
[10]
  viability, T/C: 99%
[11]
  viability, T/C: 97.8%
[12]
  viability, T/C: 104%
Second compound 0.316 µM, first compound 3.16 µM
  viability, T/C: 90.8%
Second compound 0.316 µM, first compound 10 µM
  viability, T/C: 80.6%
[13]
  viability, T/C: 98%
[14]
  viability, T/C: 92.4%
[15]
  viability, T/C: 94.3%
[16]
  viability, T/C: 92.1%
Second compound 1 µM, first compound 3.16 µM
  viability, T/C: 89.2%
Second compound 1 µM, first compound 10 µM
  viability, T/C: 83.2%
[17]
  viability, T/C: 88.5%
[18]
  viability, T/C: 94.3%
[19]
  viability, T/C: 97%
[20]
  viability, T/C: 90.4%
Second compound 3.16 µM, first compound 3.16 µM
  viability, T/C: 91%
Second compound 3.16 µM, first compound 10 µM
  viability, T/C: 76.1%
[21]
  viability, T/C: 92.8%
[22]
  viability, T/C: 84.7%
[23]
  viability, T/C: 85.4%
[24]
  viability, T/C: 84.7%
Second compound 10 µM, first compound 3.16 µM
  viability, T/C: 73.2%
Second compound 10 µM, first compound 10 µM
  viability, T/C: 61.5%

## CCc1c2c(nc3ccc(O)cc13)-c1cc3c(c(=O)n1C2)COC(=O)[C@]3(O)CC + Nc1ccc(C#CCN(C(=O)Cc2ncc(C(F)(F)F)cc2C(F)(F)F)c2ccc(F)cc2)nn1
Second compound 0.0316 µM
  IC50: > 1 µM
Second compound 0.1 µM
  IC50: > 1 µM
Second compound 0.316 µM
  IC50: > 1 µM
Second compound 1 µM
  IC50: > 1 µM
Second compound 3.16 µM
  IC50: > 1 µM
Second compound 10 µM
  IC50: > 1 µM
Second compound 0.0316 µM, first compound 0.00316 µM
  viability, T/C: 116%
Second compound 0.0316 µM, first compound 0.01 µM
  viability, T/C: 102%
[1]
  viability, T/C: 89.6%
[2]
  viability, T/C: 90.8%
[3]
  viability, T/C: 81.2%
[4]
  viability, T/C: 69.9%
Second compound 0.1 µM, first compound 0.00316 µM
  viability, T/C: 114%
Second compound 0.1 µM, first compound 0.01 µM
  viability, T/C: 107%
[5]
  viability, T/C: 95.7%
[6]
  viability, T/C: 93.5%
[7]
  viability, T/C: 81.2%
[8]
  viability, T/C: 60%
Second compound 0.316 µM, first compound 0.00316 µM
  viability, T/C: 117%
Second compound 0.316 µM, first compound 0.01 µM
  viability, T/C: 109%
[9]
  viability, T/C: 85.3%
[10]
  viability, T/C: 92.6%
[11]
  viability, T/C: 85.8%
[12]
  viability, T/C: 68.3%
Second compound 1 µM, first compound 0.00316 µM
  viability, T/C: 107%
Second compound 1 µM, first compound 0.01 µM
  viability, T/C: 98.7%
[13]
  viability, T/C: 88.4%
[14]
  viability, T/C: 85.3%
[15]
  viability, T/C: 83.6%
[16]
  viability, T/C: 52.5%
Second compound 3.16 µM, first compound 0.00316 µM
  viability, T/C: 101%
Second compound 3.16 µM, first compound 0.01 µM
  viability, T/C: 99.2%
[17]
  viability, T/C: 97.9%
[18]
  viability, T/C: 92%
[19]
  viability, T/C: 77%
[20]
  viability, T/C: 60.6%
Second compound 10 µM, first compound 0.00316 µM
  viability, T/C: 101%
Second compound 10 µM, first compound 0.01 µM
  viability, T/C: 94.8%
[21]
  viability, T/C: 86.7%
[22]
  viability, T/C: 85%
[23]
  viability, T/C: 72.7%
[24]
  viability, T/C: 57.1%
